Data taken from patent publication US20080181866A1, “Amido Anti-viral Compounds” (Genelabs Technologies, Inc., priority 2006, published 2008).

Test system: HCV replication
Assay: HCV replicon assay (luciferase) in ET (Huh-lucubineo-ET) cell line
Type: cell-based
Settings: Hepatitis C virus, tested at 5 μM; ET replicon cells; luciferase activity measured 48-72 hours later; relative to no compound control
How it was run: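 Huh-lucubineo-ET cells stably carry a subgenomic replicon with a firefly luciferase–ubiquitin–neo fusion and adaptive NS3-5B mutations; they were seeded 24 h before compound addition (0.1 nM–50 μM, 0.5% DMSO). Luciferase was read 48–72 h later as % inhibition versus no-compound control, with parallel WST-1 cytotoxicity. EC50 and TC50 came from 10-point 2-fold dilutions fitted to a Hill equation.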

SMILES | inhibition at 5 µM
O=C(NC1CC1)c1ccc(-c2csc(NC(=O)[C@@H]3CSC(C4CCOCC4)N3C(=O)[C@H]3CCCO3)n2)cc1 (some centres unmarked) [Compound 7074, 3-(Tetrahydro-furan-2-carbonyl)-2-(tetrahydro-pyran-4-yl)-thiazolidine-4-carboxylic acid [4-(4-cyclopropylcarbamoyl-phenyl)-thiazol-2-yl]-amide] | 99%
O=C(NCc1ccccc1)c1ccc(NC(=O)[C@@H]2CSC(c3ccncc3)N2C(=O)OCc2ccccc2)cc1 (some centres unmarked) [Compound 7075, 4-(4-Benzylcarbamoyl-phenylcarbamoyl)-2-pyridin-4-yl-thiazolidine-3-carboxylic acid benzyl ester] | 21.3%
O=C(Nc1ccccc1)c1ccc(NC(=O)[C@@H]2CSC(c3ccncc3)N2C(=O)OCc2ccccc2)cc1 (some centres unmarked) [Compound 7076, 4-(4-Phenylcarbamoyl-phenylcarbamoyl)-2-pyridin-4-yl-thiazolidine-3-carboxylic acid benzyl ester] | 3.9%
CC(C)(C)OC(=O)NCc1ccc(NC(=O)[C@@H]2CSC(c3ccncc3)N2C(=O)OCc2ccccc2)cc1 (some centres unmarked) [Compound 7078, 4-[4-(tert-Butoxycarbonylamino-methyl)-phenylcarbamoyl]-2-pyridin-4-yl-thiazolidine-3-carboxylic acid benzyl ester] | 35.6%
Cc1cccc2[nH]c(Cc3ccc(NC(=O)[C@@H]4CSC(c5ccncc5)N4C(=O)OCc4ccccc4)cc3)nc12 (some centres unmarked) [Compound 7084, 4-[4-(4-Methyl-1H-benzoimidazol-2-ylmethyl)-phenylcarbamoyl]-2-pyridin-4-yl-thiazolidine-3-carboxylic acid benzyl ester] | 14.2%
O=C(NC1CC1)c1ccc(-c2csc(NC(=O)[C@@H]3CSC(C4CCOCC4)N3C(=O)C3CC3)n2)cc1 (some centres unmarked) [Compound 7085, 3-Cyclopropanecarbonyl-2-(tetrahydro-pyran-4-yl)-thiazolidine-4-carboxylic acid [4-(4-cyclopropylcarbamoyl-phenyl)-thiazol-2-yl]-amide] | 99.6%
O=C(NC1CC1)c1ccc(-c2csc(NC(=O)[C@@H]3CSC(c4ccc(CN5CCOCC5)cc4)N3C(=O)OCc3ccccc3)n2)cc1 (some centres unmarked) [Compound 7087, 4-[4-(4-Cyclopropylcarbamoyl-phenyl)-thiazol-2-ylcarbamoyl]-2-(4-morpholin-4-ylmethyl-phenyl)-thiazolidine-3-carboxylic acid benzyl ester] | 99.6%
CC(C)(C)OC(=O)N1C(C2CCOCC2)SC[C@H]1C(=O)Nc1nc(-c2ccc(C(=O)NC3CC3)cc2)cs1 (some centres unmarked) [Compound 7090, 4-[4-(4-Cyclopropylcarbamoyl-phenyl)-thiazol-2-ylcarbamoyl]-2-(tetrahydropyran-4-yl)-thiazolidine-3-carboxylic acid tert-butyl ester] | 99.7%
Cn1ccnc1C(=O)N1C(C2CCOCC2)SC[C@H]1C(=O)Nc1nc(-c2ccc(C(=O)NC3CC3)cc2)cs1 (some centres unmarked) [Compound 7092, 3-(1-Methyl-1H-imidazole-2-carbonyl)-2-(tetrahydro-pyran-4-yl)-thiazolidine-4-carboxylic acid [4-(4-cyclopropylcarbamoyl-phenyl)-thiazol-2-yl]-amide] | 89.4%
O=C(NC1CC1)c1ccc(-c2csc(NC(=O)[C@@H]3CSC4(CCCCC4)N3C(=O)OCc3ccccc3)n2)cc1 [Compound 7093, 3-[4-(4-Cyclopropylcarbamoyl-phenyl)-thiazol-2-ylcarbamoyl]-1-thia-4-aza-spiro[4.5]decane-4-carboxylic acid benzyl ester] | 100%
O=C(Nc1nc(-c2ccccc2)cs1)[C@@H]1CSC2(CCOCC2)N1C(=O)OCc1ccccc1 [Compound 7094, 3-(4-Phenyl-thiazol-2-ylcarbamoyl)-8-oxa-1-thia-4-aza-spiro[4.5]decane-4-carboxylic acid benzyl ester] | 88%
